Test results taken from patent US20080058351A1, “Novel heterobicyclic compounds” (Concert Pharmaceuticals Inc., priority 2006, published 2008).

Columns and labels:
[1] = Co-incubation of Compound 1 and Indiplon with human liver microsomes; assay type: in vitro ADME
Experimental: Co-incubation of Compound 1 and Indiplon with Human Liver Microsomes: In another set of experiments Compound 1 and Indiplon were incubated together with human liver microsomes and their metabolism followed over time to eliminate any potential variability in samples. The reaction mixture compositions utilized in these experiments were as follows:
Reaction Mixture Composition A:
Reaction Mixture Composition B:
Reaction Mixture Composition C:
HPLC-grade solvents were used for preparation of all solutions. Dosing solutions of test agents were initially prepared at five times the final concentrations of the various reaction mixtures indicated above. Dosing solutions were warmed to 37° C. prior to the start of the assay. Two sets of triplicate wells were prepared in a 96-well deep well plate for each reaction mixture and warmed to 37° C. At the start of the assay, dosing solutions were diluted five-fold into the reaction wells. The reaction plate was incubated at 37° C., and 30 μL aliquots removed immediately after start (15 sec), and after each of 10 min, 20 min, 30 min, 40 min and 60 min of reaction. The aliquots were added to 30 μL of ice cold STOP Solution (acetonitrile containing 0.3% acetic acid with 3 mM haloperidol as an internal standard) in a separate 96-well plate. The stopped reactions were incubated at least 10 min at −20° C., and 30 μL of water was added. The plates were centrifuged for 15 min at 2000 rpm, 4° C. Approximate 60 μL of the supernatant was removed without disturbing the pellet and transferred to a fresh 96-well plate for analysis. Analysis samples were stored at −20° C. and analyzed by LC-MS.

[2] = Human liver microsome metabolic stability assay (separate incubations); assay type: in vitro ADME; conditions: 1.0 mg/mL human liver microsomes
Source text: Human Microsomal Assay: The metabolic stability of the present compounds may be evaluated in one or more microsomal assays that are known in the art. See, for example, Obach, R. S. Drug Metab Disp 1999, 27, p. 1350 “Prediction of human clearance of twenty-nine drugs from hepatic microsomal intrinsic clearance data: An examination of in vitro half-life approach and nonspecific binding to microsomes”; Houston, J. B. et al., Drug Metab Rev 1997, 29, p. 891 “Prediction of hepatic clearance from microsomes, hepatocytes, and liver slices”; Houston, J. B. Biochem Pharmacol 1994, 47, p. 1469 “Utility of in vitro drug metabolism data in predicting in vivo metabolic clearance”; Iwatsubo, T et al., Pharmacol Ther 1997, 73, p. 147 “Prediction of in vivo drug metabolism in the human liver from in vitro metabolism data”; and Lave, T. et al., Pharm Res 1997, 14, p. 152 “The use of human hepatocytes to select compounds based on their expected hepatic extraction ratios in humans”; each of which are incorporated herein in their entirety.
The objectives of this study were to determine the metabolic stability of the test compounds in pooled liver microsomal incubations and to perform full scan LC-MS analysis for the detection of major metabolites. Samples of the test compounds, exposed to pooled human liver microsomes, were analyzed using HPLC-MS (or MS/MS) detection. For determining metabolic stability, multiple reaction monitoring (MRM) was used to measure the disappearance of the test compounds. For metabolite detection, Q1 full scans were used as survey scans to detect the major metabolites.
Experimental Procedures: Human liver microsomes were obtained from Absorption Systems L.P. (Exton, Pa.). Details about the matrices used in the experiments are shown below. The incubation mixture was prepared as follows:
Reaction Mixture Composition
Incubation of Test Compounds with Liver Microsomes: The reaction mixture, minus cofactors, was prepared. An aliquot of the reaction mixture (without cofactors) was incubated in a shaking water bath at 37° C. for 3 minutes. Another aliquot of the reaction mixture was prepared as the negative control. The test compound was added into both the reaction mixture and the negative control at a final concentration of 1 μM. An aliquot of the reaction mixture was prepared as a blank control, by the addition of plain organic solvent (not the test compound). The reaction was initiated by the addition of cofactors (not into the negative controls), and then incubated in a shaking water bath at 37° C. Aliquots (200 μL) were withdrawn in triplicate at 0, 15, 30, 60, and 120 minutes and combined with 800 μL of ice-cold 50/50 acetonitrile/dH2O to terminate the reaction. The positive controls, testosterone and propranolol, were run simultaneously with the test compounds in separate reactions.
All samples were analyzed using LC-MS (or MS/MS). An LC-MRM-MS/MS method was used for metabolic stability. Also, Q1 full scan LC-MS methods were performed on the blank matrix and the test compound incubation samples. The Q1 scans served as survey scans to identify any sample unique peaks that might represent the possible metabolites. The masses of these potential metabolites can be determined from the Q1 scans.

[3] = target: benzodiazepine receptor of the rat cerebral cortex; assay: Benzodiazepine receptor binding, competition with [3H]flunitrazepam; conditions: [3H]flunitrazepam 0.4 nM, 4° C., 60 minutes
Experimental: Benzodiazepine Receptor Binding. Compound 1 and Indiplon were compared in their ability to bind to compete with [^3H] flunitrazepam (0.4 nM) for binding to the benzodiazepine receptor of the rat cerebral cortex using the method of Speth, R C et al., 1979, Life Sci., 24:351-358. Varying concentrations of Indiplon or Compound 1 (30 pM-1 μM) were used. Diazepam (3 μM) was used as a non-specific receptor binding compound. Binding was allowed to proceed at 4° C. for 60 minutes. Quantification of binding was determined by scintillation counting.

[4] = target: benzodiazepine site on the GABAA receptor (rat cortex); assay: Inhibition of [3H]flunitrazepam binding to rat cortex membranes; conditions: read-out: IC50 for displacing [3H]flunitrazepam binding to rat cortex
[5] = tested on: GABAA receptor (rat cortex membranes); assay: Enhancement of [35S]TBPS binding to rat cortex membranes
Source text: A further index of activity at the benzodiazepine site on the GABAA receptor is the ability to increase the binding of [^35S] t-butylbicyclophosphorothionate (TBPS) to rat cortex membranes. TBPS binds to a site on the GABAA receptor which is closely associated with the chloride channel, and an increase in TBPS binding correlates with increased activation of the chloride conductance (i.e., enhanced GABAA receptor function). Compounds which act as agonists at the benzodiazepine site increase TBPS binding to varying degrees, which reflects their relative efficacies.

Work on `CC(=O)N(C)c1cccc(-c2ccnc3c(C(=O)c4cccs4)cnn23)c1` [Indiplon, N-methyl-N-[3-[3-(2-thienylcarbonyl)-pyrazolo[1,5-a]pyrimidin-7-yl]phenyl]acetamide] yielded a half-life at 0.1 μM ([1]; human liver microsomes, 0.1 μM each, 1.0 mg/ml human microsomes (FIG. 1 panel B)) of 3.62 h, a half-life at 0.2 μM ([1]; human liver microsomes, 0.2 μM each, 2.0 mg/ml human microsomes (FIG. 1 panel C)) of 1.94 h and a half-life at 0.5 μM ([1]; human liver microsomes, 0.5 μM each, 1.0 mg/ml human microsomes (FIG. 1 panel A)) of 2.7 h. The “% remaining after 60 minutes of exposure” value ([2]; 1 μM test compound) was 50%, the “% remaining after 120 minutes of exposure” value ([2]; 1 μM test compound) was 42% and the half-life at 1 μM ([2]; pooled human liver microsomes, 1 μM test compound) was 0.983 h. It also gave an IC50 [3] of 3.6 nM and a Ki [3] of 3 nM.

In the case of `CN1C(=O)CN=C(c2ccccc2F)c2cc([N+](=O)[O-])ccc21` [flunitrazepam], the IC50 [4] is reported as 114 nM.

Compound `Cc1ccc(-c2nc3ccc(C)cn3c2CC(=O)N(C)C)cc1` [zolpidem] has an IC50 [4] of 26 nM.

With `CCN(CC)CCN1C(=O)CN=C(c2ccccc2F)c2cc(Cl)ccc21` [flurazepam] the “Emax (maximum enhancement of TBPS binding over the concentration range employed)” value [5] was 71%.

In the case of `[2H]C([2H])([2H])N(C(C)=O)c1cccc(-c2ccnc3c(C(=O)c4cccs4)cnn23)c1` [Compound 1, N-d3-Methyl-N-{3-[3-(thiophene-2-carbonyl)-pyrazolo[1,5-a]pyrimidin-7-yl]-phenyl}-acetamide], the half-life ([1]; 0.1 μM each, 1.0 mg/ml human microsomes (FIG. 1 panel B)) is reported as 4.557 h, the “ratio of half lives of Compound 1 to Indiplon” value (“ratio … to Indiplon” below) ([1]; 0.1 μM each, 1.0 mg/ml human microsomes (panel B)) is reported as 1.257 and the half-life ([1]; 0.2 μM each, 2.0 mg/ml human microsomes (FIG. 1 panel C)) is reported as 2.543 h. For the same compound, the “ratio … to Indiplon” value ([1]; 0.2 μM each, 2.0 mg/ml human microsomes (panel C)) was 1.312, the half-life ([1]; 0.5 μM each, 1.0 mg/ml human microsomes (FIG. 1 panel A)) was 3.405 h and the “ratio … to Indiplon” value ([1]; 0.5 μM each, 1.0 mg/ml human microsomes (panel A)) was 1.260. The half life ([2]; 1 μM test compound) was 1.24 h, the “% remaining after 60 minutes of exposure” value ([2]; 1 μM test compound) was 66% and the “% remaining after 120 minutes of exposure” value ([2]; 1 μM test compound) was 59%. For the same compound, the “ratio … to Indiplon” value ([2]; 1 μM) was 1.261.

With `Cc1nnc2n1-c1ccc(Cl)cc1C(c1ccccc1Cl)=NC2` [triazolam] the “Emax (maximum enhancement of TBPS binding over the concentration range employed)” value [5] was 78% and the IC50 [4] was 0.5 nM.

Work on `CC(=O)N(C)c1cccc(-c2ccnc3c(C(=O)c4cccs4)cnn23)c1` [Compound 1, N-d3-Methyl-N-{3-[3-(thiophene-2-carbonyl)-pyrazolo[1,5-a]pyrimidin-7-yl]-phenyl}-acetamide] yielded an IC50 [3] of 2.9 nM and a Ki [3] of 2.4 nM.

In the case of `CN1C(=O)CN=C(c2ccccc2)c2cc(Cl)ccc21` [diazepam], the “Emax (maximum enhancement of TBPS binding over the concentration range employed)” value [5] is reported as 55% and the IC50 [4] is reported as 17 nM.
